Measured values from ChEMBL document CHEMBL6078659, “Comprehensive Insights into the Development of Antitoxoplasmosis Drugs: Current Advances, Obstacles, and Future Perspectives” (J Med Chem, 2024).

How the values were obtained:
Toxoplasma gondii = assay: Antiparasitic activity against Toxoplasma gondii RH infected in human HFF cells assessed as reduction in parasitic growth; format: functional, organism-based
[1] = biological target: T1, Bifunctional dihydrofolate reductase-thymidylate synthase (Toxoplasma gondii, UniProt Q07422); assay: Inhibition of Toxoplasma gondii thymidylate synthase
T1 sequence (Q07422 whole entry): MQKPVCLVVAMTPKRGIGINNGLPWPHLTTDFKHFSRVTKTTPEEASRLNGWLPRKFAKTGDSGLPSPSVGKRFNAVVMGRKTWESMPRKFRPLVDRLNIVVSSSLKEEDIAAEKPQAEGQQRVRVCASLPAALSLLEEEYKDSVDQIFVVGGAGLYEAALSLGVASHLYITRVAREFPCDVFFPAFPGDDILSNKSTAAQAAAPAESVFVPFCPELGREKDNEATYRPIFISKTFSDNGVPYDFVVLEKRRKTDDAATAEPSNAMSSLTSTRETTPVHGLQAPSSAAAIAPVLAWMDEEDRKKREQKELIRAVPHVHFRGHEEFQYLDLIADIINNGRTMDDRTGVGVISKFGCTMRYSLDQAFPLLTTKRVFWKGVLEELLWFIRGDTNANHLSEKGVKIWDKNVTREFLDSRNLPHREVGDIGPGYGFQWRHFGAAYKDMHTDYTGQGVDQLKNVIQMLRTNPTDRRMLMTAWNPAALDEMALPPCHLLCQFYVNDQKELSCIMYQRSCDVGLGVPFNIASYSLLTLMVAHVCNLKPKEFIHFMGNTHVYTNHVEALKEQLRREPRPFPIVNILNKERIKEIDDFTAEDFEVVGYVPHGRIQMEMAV

Cn1cc(-c2ccc3c(c2)CCN3C(=O)Cc2cccc(C(F)(F)F)c2)c2c(N)ncnc21
IC50 (Toxoplasma gondii): < 1000 nM

C[C@H](NC(=O)OC(C)(C)C)C(=O)OC1O[C@@H]2O[C@@]3(C)CC[C@H]4[C@H](C)CC[C@@H]([C@H]1C)[C@@]24OO3 (stereo not given in full)
IC50 [1]: 41000 nM

C[C@H]1[C@H](N2CCS(=O)(=O)CC2)O[C@@H]2O[C@@]3(C)CC[C@H]4[C@H](C)CC[C@@H]1[C@@]24OO3 [ARTEMIFONE]
IC50 [1]: 120 nM

C[C@H]1[C@H](N2CCSCC2)O[C@@H]2O[C@@]3(C)CC[C@H]4[C@H](C)CC[C@@H]1[C@@]24OO3 [ARTEMISIDE]
IC50 [1]: 100 nM

N=C(N)N/N=C/c1c(Cl)cccc1Cl [GUANABENZ]
IC50 (Toxoplasma gondii): 6000 nM
